According to the supplement of paper PMC13380429:

Key:
Details in all cases: 72 h
[1] = test system: U2OS; assay: cell viability relative to DMSO; higher = less toxic
[2] = test system: Vero E6; assay: as above
[3] = test system: HepG2; assay: as above
[4] = test system: Calu-3; assay: as above
[5] = test system: Caco-2; assay: as above
[6] = test system: U2OS; assay: drug sensitivity score (DSS) for viability; higher = more toxic; extreme values may be limits of the assay
[7] = test system: Vero E6; assay: as above
[8] = test system: HepG2; assay: as above
[9] = test system: Calu-3; assay: as above
[10] = test system: Caco-2; assay: as above
[11] = test system: U2OS; assay: relative viability EC50 (midpoint between 100% and the lowest measured viability); higher = less toxic
[12] = test system: Vero E6; assay: as above
[13] = test system: HepG2; assay: as above
[14] = test system: Calu-3; assay: as above
[15] = test system: Caco-2; assay: as above

SMILES | cell viability ([1]; 1 nM) | cell viability ([1]; 10 nM) | cell viability ([1]; 100 nM) | cell viability ([1]; 1000 nM) | cell viability ([1]; 10000 nM) | cell viability ([2]; 1 nM) | cell viability ([2]; 10 nM) | cell viability ([2]; 100 nM) | cell viability ([2]; 1000 nM) | cell viability ([2]; 10000 nM) | cell viability ([3]; 1 nM) | cell viability ([3]; 10 nM) | cell viability ([3]; 100 nM) | cell viability ([3]; 1000 nM) | cell viability ([3]; 10000 nM) | cell viability ([4]; 1 nM) | cell viability ([4]; 10 nM) | cell viability ([4]; 100 nM) | cell viability ([4]; 1000 nM) | cell viability ([4]; 10000 nM) | cell viability ([5]; 1 nM) | cell viability ([5]; 10 nM) | cell viability ([5]; 100 nM) | cell viability ([5]; 1000 nM) | cell viability ([5]; 10000 nM) | drug sensitivity score [6] | drug sensitivity score [7] | drug sensitivity score [8] | drug sensitivity score [9] | drug sensitivity score [10] | relative viability EC50 [11] | relative viability EC50 [12] | relative viability EC50 [13] | relative viability EC50 [14] | relative viability EC50 [15]
COc1ccc(S(=O)(=O)N2c3ccc(Cl)cc3[C@](O)(c3ccccc3Cl)[C@@H]2C(=O)N2CCC[C@H]2C(N)=O)cc1OC [relcovaptan] | 103% | 105% | 102% | 105% | 99.2% | 103% | 99.8% | 92.4% | 97.2% | 97.5% | 108% | 99.4% | 108% | 98.8% | 94.3% | 91.8% | 100% | 93.3% | 108% | 86.7% | 102% | 102% | 91.6% | 102% | 87.5% | 0 | 0 | 0 | 0 | 0 | > 10 µM | > 10 µM | > 10 µM | > 10 µM | > 10 µM
CC(C)N(CCCNC(=O)Nc1ccc(C(C)(C)C)cc1)C[C@H]1O[C@@H](n2ccc3c(N)ncnc32)[C@H](O)[C@@H]1O | 94.1% | 100% | 92.9% | 102% | 101% | 94.3% | 97% | 97.4% | 99.9% | 99.5% | 104% | 105% | 107% | 91.5% | 111% | 96.3% | 106% | 92.4% | 102% | 108% | 99.7% | 97.2% | 95.2% | 86.5% | 103% | 0 | 0 | 0 | 0 | 0 | > 10 µM | > 10 µM | > 10 µM | > 10 µM | > 10 µM
CC[C@@]1(O)C(=O)OCc2c1cc1n(c2=O)Cc2cc3cc(O)ccc3nc2-1 [10-hydroxycamptothecin] | 102% | 106% | 90.1% | 41.6% | 1.7% | 97.4% | 97.5% | 92.9% | 59.9% | 22.5% | 102% | 47.8% | 31.2% | 5.3% | 2.1% | 95.8% | 97.5% | 48.7% | 31.4% | 20.2% | 94.2% | 107% | 89.3% | 43% | 13.2% | 12.7 | 9.1 | 31.8 | 20.5 | 12.2 | 0.715 µM | 0.9 µM | 0.0158 µM | 0.0695 µM | 0.573 µM
O=C(NCCN1CCCCC1)c1ccc(I)cc1 [N-[2-(piperidinylamino)ethyl]-4-iodobenzamide] | 103% | 97.5% | 97% | 91.3% | 95.5% | 101% | 99.6% | 96.5% | 99.3% | 93.4% | 103% | 91.8% | 103% | 99.1% | 91.3% | 101% | 89.4% | 94.6% | 92.7% | 116% | 96.4% | 99.6% | 105% | 92.1% | 91.2% | 0 | 0 | 0 | 0 | 0 | > 10 µM | > 10 µM | > 10 µM | > 10 µM | > 10 µM
CCCCOC(=O)c1ccc(N)cc1 [butamben] | 98.7% | 96.5% | 102% | 94.9% | 103% | 94.2% | 102% | 96.3% | 92.8% | 82.3% | 104% | 93.6% | 124% | 112% | 124% | 98.6% | 96.7% | 94.2% | 93.7% | 94.1% | 108% | 94% | 95.6% | 90.9% | 97.5% | 0 | 0.7 | 0 | 0 | 0 | > 10 µM | > 10 µM | > 10 µM | > 10 µM | > 10 µM
CS(=O)(=O)c1cc(F)cc2c3c(n(Cc4ccc(Cl)cc4)c12)[C@@H](CC(=O)O)CC3 [laropiprant] | 100% | 101% | 98.3% | 106% | 97.5% | 102% | 99.6% | 106% | 98.2% | 91.9% | 99% | 94.2% | 100% | 98.6% | 101% | 101% | 95.4% | 90.3% | 110% | 94.6% | 95.4% | 102% | 91% | 95.4% | 88.5% | 0 | 0 | 0 | 0 | 0 | > 10 µM | > 10 µM | > 10 µM | > 10 µM | > 10 µM
CCCNC(=O)N1N=C(c2ccc(N)cc2)c2cc3c(cc2C1C)OCO3 (stereo not given) [SYM-2206] | 95.1% | 101% | 97.4% | 103% | 101% | 98.5% | 92.5% | 97.9% | 88.9% | 98.6% | 91.9% | 94.8% | 95.2% | 93% | 93.5% | 86.9% | 101% | 109% | 111% | 119% | 96.6% | 102% | 95.5% | 94.2% | 100% | 0 | 0 | 0 | 0 | 0 | > 10 µM | > 10 µM | > 10 µM | > 10 µM | > 10 µM
CC(=O)[C@]1(O)Cc2c(O)c3c(c(O)c2[C@@H](O[C@H]2C[C@H](N)[C@H](O)[C@H](C)O2)C1)C(=O)c1ccccc1C3=O [idarubicin] | 100% | 86.3% | 60.7% | 1% | 0% | 106% | 94% | 58.2% | 6.1% | 2.9% | 94.8% | 50.3% | 29.7% | 0% | 0.1% | 104% | 90.1% | 48.6% | 27.7% | 9.7% | 103% | 96.1% | 62.1% | 10.8% | 17.4% | 22.2 | 22 | 32.2 | 21 | 20.7 | 0.128 µM | 0.12 µM | 0.016 µM | 0.0921 µM | 0.117 µM
CCNC(=O)NS(=O)(=O)c1sc(CC(C)C)cc1-c1ccc(Cn2c(-c3ccccc3)nc(OC)c2C=O)cc1 [AVE-0991] | 104% | 99.7% | 103% | 100% | 102% | 99.9% | 98.3% | 97.7% | 93.3% | 96% | 102% | 99.6% | 101% | 108% | 102% | 107% | 104% | 110% | 93.8% | 97.9% | 108% | 97.5% | 99.1% | 90.1% | 97.7% | 0 | 0 | 0 | 0 | 0 | > 10 µM | > 10 µM | > 10 µM | > 10 µM | > 10 µM
N[C@H](C(=O)O)c1ccc(O)cc1 [oxfenicine] | 99.7% | 103% | 98.6% | 102% | 95.7% | 99.7% | 96.3% | 101% | 91.3% | 99.1% | 84.1% | 96.3% | 96.9% | 103% | 100% | 103% | 95.1% | 99.2% | 103% | 103% | 94.2% | 90.6% | 88.6% | 88.6% | 96.3% | 0 | 0 | 0 | 0 | 0 | > 10 µM | > 10 µM | > 10 µM | > 10 µM | > 10 µM
c1ccc2cc(C3=NCCN3)ncc2c1 [BU226] | 105% | 108% | 99.7% | 106% | 100% | 96.6% | 97.1% | 96.5% | 94.6% | 98.7% | 102% | 95.7% | 86.1% | 103% | 104% | 112% | 97.5% | 97% | 97.4% | 91.8% | 103% | 108% | 94.3% | 97.7% | 101% | 0 | 0 | 0 | 0 | 0 | > 10 µM | > 10 µM | > 10 µM | > 10 µM | > 10 µM
CC1CNc2c(cccc2S(=O)(=O)N[C@@H](CCCNC(=N)N)C(=O)N2CC[C@@H](C)C[C@@H]2C(=O)O)C1 (mixture of isomers) [argatroban] | 98.2% | 104% | 98.9% | 102% | 96.2% | 97.7% | 99.1% | 99.2% | 93.4% | 102% | 113% | 93.7% | 96.1% | 87.4% | 97.8% | 91.3% | 97.4% | 98.7% | 93.8% | 94.6% | 96.5% | 97.1% | 86.3% | 105% | 94.3% | 0 | 0 | 0 | 0 | 0 | > 10 µM | > 10 µM | > 10 µM | > 10 µM | > 10 µM
